Laboratory results reported in US9517993B2, “Antagonists of the toll-like receptor 1/2 complex” (THE REGENTS OF THE UNIVERSITY OF COLORADO, a body corporate, priority 2012, dated 2016).

Columns and labels:
TLR1/2 [1] = target: T1, TLR1/2 (Mus musculus, UniProt Q9EPQ1+Q9QUN7); assay: In vitro TLR1/2 inhibition assay (nitric oxide, Pam3CSK4-activated RAW 264.7 macrophages); type: cell-based; conditions: RAW 264.7 NO assay; for TLR1/2 inhibitory activity (in words, SAR and specificity): Pam3CSK4
T1 construct: production of NO in RAW 264.7 macrophage cells; endogenous in cells; host or cells: RAW 264.7
T1 sequence (Q9EPQ1 26-795): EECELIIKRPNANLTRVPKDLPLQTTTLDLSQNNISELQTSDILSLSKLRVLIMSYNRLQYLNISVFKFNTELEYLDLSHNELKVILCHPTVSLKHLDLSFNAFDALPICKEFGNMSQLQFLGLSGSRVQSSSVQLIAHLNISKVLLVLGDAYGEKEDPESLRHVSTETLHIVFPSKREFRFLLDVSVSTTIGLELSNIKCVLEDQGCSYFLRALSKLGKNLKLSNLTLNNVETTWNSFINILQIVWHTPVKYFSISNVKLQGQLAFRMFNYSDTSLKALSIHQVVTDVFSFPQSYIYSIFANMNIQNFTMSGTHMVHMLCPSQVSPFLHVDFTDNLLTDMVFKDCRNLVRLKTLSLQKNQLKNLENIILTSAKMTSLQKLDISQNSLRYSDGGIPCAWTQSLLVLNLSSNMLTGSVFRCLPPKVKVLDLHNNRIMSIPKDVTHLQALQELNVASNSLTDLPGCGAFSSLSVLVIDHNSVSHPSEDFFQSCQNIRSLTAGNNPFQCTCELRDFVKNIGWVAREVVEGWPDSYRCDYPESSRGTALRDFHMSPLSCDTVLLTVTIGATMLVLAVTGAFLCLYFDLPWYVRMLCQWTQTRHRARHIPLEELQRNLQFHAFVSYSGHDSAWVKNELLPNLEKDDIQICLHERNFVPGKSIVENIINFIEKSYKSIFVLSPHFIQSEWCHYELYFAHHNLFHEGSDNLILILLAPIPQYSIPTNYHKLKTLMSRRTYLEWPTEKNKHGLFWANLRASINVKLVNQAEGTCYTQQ
T1 sequence (Q9QUN7 25-784): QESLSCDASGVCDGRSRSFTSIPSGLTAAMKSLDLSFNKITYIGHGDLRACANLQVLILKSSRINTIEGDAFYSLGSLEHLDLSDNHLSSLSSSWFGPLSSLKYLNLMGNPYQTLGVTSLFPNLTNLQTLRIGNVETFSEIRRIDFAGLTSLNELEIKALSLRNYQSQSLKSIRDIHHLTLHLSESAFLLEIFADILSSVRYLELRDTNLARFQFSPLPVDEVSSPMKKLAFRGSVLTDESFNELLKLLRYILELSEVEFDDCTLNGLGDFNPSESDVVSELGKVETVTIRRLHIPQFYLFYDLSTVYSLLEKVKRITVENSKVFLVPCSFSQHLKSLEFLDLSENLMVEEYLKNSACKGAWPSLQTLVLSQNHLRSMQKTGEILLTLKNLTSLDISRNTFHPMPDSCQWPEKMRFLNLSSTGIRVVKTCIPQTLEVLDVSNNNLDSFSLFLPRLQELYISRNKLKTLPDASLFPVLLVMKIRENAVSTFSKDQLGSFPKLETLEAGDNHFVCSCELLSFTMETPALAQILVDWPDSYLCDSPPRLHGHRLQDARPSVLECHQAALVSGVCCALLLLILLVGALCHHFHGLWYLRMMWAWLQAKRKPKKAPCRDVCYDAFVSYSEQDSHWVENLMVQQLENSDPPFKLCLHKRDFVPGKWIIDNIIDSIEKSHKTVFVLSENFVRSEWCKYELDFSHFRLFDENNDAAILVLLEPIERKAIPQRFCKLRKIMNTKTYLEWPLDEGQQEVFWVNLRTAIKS
Experimental: To identify novel TLR1/2 complex inhibitors, a cell-based assay was employed to screen the NCI-2 diversity small-molecule library. This 1,363 compound library was chosen from the larger NCI library, which has more than 140,000 compounds, on the basis of availability, purity, and other pharmacological features, such as relative rigidity, number of rotatable bonds and chiral centers, the absence of obvious leaving groups and weakly bounded heteroatoms, etc. Screening was performed in a 96-well plate format using a previously established high-throughput nitric oxide (NO) assay. See e.g. Cheng et al., Small molecule inhibitors of the TLR3/dsRNA complex, J. Am. Chem. Soc. (2011), 133:3764-67, which is herein incorporated by reference in its entirety. Briefly, synthetic triacylated lipoprotein Pam3CSK4 was employed to selectively activate TLR1/2 signaling, resulting in the expression of inducible nitric oxide synthase (iNOS) and the production of NO in RAW 264.7 macrophage cells. NO levels were monitored as an indicator of Pam3CSK4-induced TLR1/2 activation to evaluate the compound's inhibitory activity.
RAW 264.7 (Mouse leukaemic monocyte macrophage cell line) cells were grown in RPMI 1640 medium, supplemented with 10% FBS, penicillin (100 U/mL) and streptomycin ([…]). RAW cells were then planted in 96-well plates at 80,000 cells per well and grown for 24 h in the media descried previously at 37° C. in a 5% CO2 humidified incubator. After 24 h, non-adherent cells and media were removed and replaced with fresh unsupplemented RPMI 1640 medium. The adherent macrophages were treated with Pam3CSK4 (CAS No. 112208-00-1; a synthetic triacylated lipopeptide (LP) that mimics the acylated amino terminus of bacterial LPs) (200 ng/mL) (Invivogen, USA), an agonist of TLR1/2, and then added different concentrates of potential inhibitor. Two rows were only treated with Pam3CSK4 as control. Plates were then incubated for an additional 24 h. Following incubation 100 μL of media was removed and added to flat black 96-well microfluor plates (Thermo Scientific, MA, USA). To each well, 10 μL of 2,3-diaminonaphthalene (0.05 mg/mL in 0.62 M aqueous HCl solution) was added and incubated for 15 min in the dark. The reaction was quenched by addition of 5 μL of a 3 M aqueous NaOH solution and the plate was read on Beckman Coulter DTX880 reader (Beckman Coulter, Calif., USA) with excitation at 365 nm and emission at 450 nm. The nitrite (a stable metabolite of nitric oxide) concentration was determined from a nitrite standard curve. The inhibition rate (%) of NO release was determined using the following formula: Inhibition (%)=[Pam3CSK4(OD450) […]]/[Pam3CSK4 (OD450)−Control (OD450)]×100. The IC50 values for both inhibition and cytotoxicity were determined graphically using software Origin v7.5.

TLR1/2 [2] = target: T2, TLR1/2 (Homo sapiens, UniProt O60603+Q15399); assay: Fluorescence anisotropy competition assay with rhodamine-labeled Pam3CSK4; type: binding; design: His; TLR2 made in house; host or cells: baculovirus; Sf-9 for virus, High Five insect cells for expression (TLR2); conditions: negative control
From the text: The TLR2 protein was expressed in the baculovirus insect cell expression system using the methods described by Kuroki et al. See Iwaki et al., The extracellular Toll-like receptor 2 domain directly binds peptidoglycan derived from Staphylococcus aureus, J. Biol Chem (2002), 277:24315-20, which is herein incorporated by reference in its entirety. The activity of the TLR2 protein was validated by the fluorescence anisotropy assay. […] Good fitting (R2>0.98) inferred that compound 17 and Pam3CSK4 compete for the same binding site on the TLR1/2 dimeric surface.
In 500 μL Tris buffer (pH=7.2) add 10 μL, (1 ng/mL) rhodamine-labeled Pam3CSK4, test the fluorescence anisotropy at excitation of 549 nm and emission of 566 nm (Horiba Fluorolog 3). And 5 μL (20 μM) TLR1 (R &D) and 5 μL, (20 μM) TLR2 was added into the above buffer, then retest the anisotropy. Following, compound 17 or compound 6 was added in the buffer from the concentration of 0 to 6 μM, and the fluorescence anisotropy was tested in the corresponding concentration.
Fluorescence polarization experiments were performed at 25° C. using a Horiba Fluorolog-3 fluorometer. For direct binding measurements, serial dilutions of TLR1 (R&D, MN) and TLR2 were made in Tris buffer (pH=7.2), and an aliquot (10 μL) of 1 ng/mL rhodamine labeled Pam3CSK4, was added to a total volume of 500 μL. The competition binding solution was incubated for 30 minutes at 25° C. Serial dilutions of compound 17 or compound 6 were incubated with 20 μM TLR1, 20 μM TLR2 and rhodamine-labeled Pam3CSK4 for 30 min at room temperature.
Regression analysis was carried out using Origin 7.5 (OriginLab) ligand binding macro module. […] Equation (1): y=min+(max−min)/(1+10^x-logIC50)(total binding, x=log concentration of and rhodamine-labeled Pam3CSK4, min=nonspecific binding, max=maximum binding in absence of ligand). Equation (2): Ki=IC50/(1+[L]/Kd) ([L]=concentration of rhodamine-labeled Pam3CSK4).
Target sequence in this assay (Q15399 25-580 limits assumed): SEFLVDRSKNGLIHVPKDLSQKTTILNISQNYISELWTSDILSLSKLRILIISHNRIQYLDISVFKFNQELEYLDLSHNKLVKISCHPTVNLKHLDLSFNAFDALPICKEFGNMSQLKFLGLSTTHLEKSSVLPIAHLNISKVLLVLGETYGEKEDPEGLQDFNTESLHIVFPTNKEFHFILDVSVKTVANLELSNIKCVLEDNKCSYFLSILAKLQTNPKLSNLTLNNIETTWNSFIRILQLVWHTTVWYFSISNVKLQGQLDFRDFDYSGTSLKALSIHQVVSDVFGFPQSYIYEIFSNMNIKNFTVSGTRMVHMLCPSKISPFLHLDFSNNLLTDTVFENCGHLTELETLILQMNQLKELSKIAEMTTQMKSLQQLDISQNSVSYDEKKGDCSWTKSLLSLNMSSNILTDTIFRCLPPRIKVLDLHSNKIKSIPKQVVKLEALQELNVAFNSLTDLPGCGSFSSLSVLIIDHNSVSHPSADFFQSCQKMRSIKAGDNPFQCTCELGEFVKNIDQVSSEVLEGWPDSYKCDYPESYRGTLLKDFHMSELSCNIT
Target sequence in this assay (O60603 21-588 limits assumed): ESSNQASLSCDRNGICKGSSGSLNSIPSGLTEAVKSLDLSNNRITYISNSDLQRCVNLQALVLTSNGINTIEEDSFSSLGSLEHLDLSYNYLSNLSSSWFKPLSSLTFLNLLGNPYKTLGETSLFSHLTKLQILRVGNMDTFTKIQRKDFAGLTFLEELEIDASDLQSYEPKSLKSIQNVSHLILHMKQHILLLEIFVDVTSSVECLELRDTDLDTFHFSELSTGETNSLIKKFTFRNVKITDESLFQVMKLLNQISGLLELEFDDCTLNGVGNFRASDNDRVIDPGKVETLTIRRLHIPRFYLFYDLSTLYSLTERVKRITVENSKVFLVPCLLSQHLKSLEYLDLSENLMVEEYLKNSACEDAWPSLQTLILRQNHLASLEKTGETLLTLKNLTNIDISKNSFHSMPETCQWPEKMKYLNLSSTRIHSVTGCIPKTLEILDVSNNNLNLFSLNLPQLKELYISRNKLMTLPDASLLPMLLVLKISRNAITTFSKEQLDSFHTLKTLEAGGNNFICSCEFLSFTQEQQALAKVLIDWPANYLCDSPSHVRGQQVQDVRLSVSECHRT

TLR1/2 [3] = target: T2, TLR1/2; conditions: read-out: known affinity (Kd); cited from earlier work
Target sequence in this assay (Q15399 25-786): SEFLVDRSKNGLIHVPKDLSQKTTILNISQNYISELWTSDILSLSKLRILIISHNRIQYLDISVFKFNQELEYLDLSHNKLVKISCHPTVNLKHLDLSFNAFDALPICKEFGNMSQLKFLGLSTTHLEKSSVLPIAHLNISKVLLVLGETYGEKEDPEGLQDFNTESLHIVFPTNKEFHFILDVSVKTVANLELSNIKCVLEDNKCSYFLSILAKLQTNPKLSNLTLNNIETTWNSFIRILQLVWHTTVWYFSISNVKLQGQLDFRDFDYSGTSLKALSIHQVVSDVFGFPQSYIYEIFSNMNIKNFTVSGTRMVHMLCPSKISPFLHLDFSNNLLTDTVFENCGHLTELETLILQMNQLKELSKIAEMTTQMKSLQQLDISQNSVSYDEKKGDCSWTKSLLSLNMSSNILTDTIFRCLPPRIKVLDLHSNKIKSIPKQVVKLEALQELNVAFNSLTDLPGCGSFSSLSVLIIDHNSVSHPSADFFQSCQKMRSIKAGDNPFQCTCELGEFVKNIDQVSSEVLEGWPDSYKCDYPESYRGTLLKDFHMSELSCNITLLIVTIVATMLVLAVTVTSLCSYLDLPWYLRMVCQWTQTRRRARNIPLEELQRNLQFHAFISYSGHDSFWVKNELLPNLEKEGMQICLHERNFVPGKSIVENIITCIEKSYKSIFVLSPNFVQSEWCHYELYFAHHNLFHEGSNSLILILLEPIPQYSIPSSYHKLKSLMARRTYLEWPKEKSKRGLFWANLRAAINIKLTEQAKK
Target sequence in this assay (O60603 21-784): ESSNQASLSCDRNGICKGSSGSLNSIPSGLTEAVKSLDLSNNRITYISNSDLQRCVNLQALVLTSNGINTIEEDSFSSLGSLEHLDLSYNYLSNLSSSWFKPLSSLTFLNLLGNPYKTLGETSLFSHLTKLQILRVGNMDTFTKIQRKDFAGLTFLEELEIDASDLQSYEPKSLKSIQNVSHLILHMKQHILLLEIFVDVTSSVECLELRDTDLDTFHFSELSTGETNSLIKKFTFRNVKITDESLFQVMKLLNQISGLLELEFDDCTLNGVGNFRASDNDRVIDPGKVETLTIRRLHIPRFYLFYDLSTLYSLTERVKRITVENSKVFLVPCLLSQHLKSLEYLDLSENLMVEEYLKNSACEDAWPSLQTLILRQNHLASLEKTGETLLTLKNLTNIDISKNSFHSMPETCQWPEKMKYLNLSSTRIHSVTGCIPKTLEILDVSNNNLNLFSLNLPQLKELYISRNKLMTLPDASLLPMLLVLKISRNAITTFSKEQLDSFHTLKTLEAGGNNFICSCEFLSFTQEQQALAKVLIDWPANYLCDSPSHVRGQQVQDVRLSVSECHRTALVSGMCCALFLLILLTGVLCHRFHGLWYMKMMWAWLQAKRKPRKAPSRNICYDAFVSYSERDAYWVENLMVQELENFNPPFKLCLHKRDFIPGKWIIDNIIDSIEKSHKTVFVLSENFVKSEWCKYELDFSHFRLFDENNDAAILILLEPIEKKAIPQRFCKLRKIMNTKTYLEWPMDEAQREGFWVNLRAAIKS

Molecule	TLR1/2 inhibitory activity (in words, SAR and specificity) (TLR1/2 [1])	other results
COc1cc2cccc(O)c(=O)c2c(O)c1O [compound 4, 3,4,6-trihydroxy-2-methoxy-5H-benzo[7]annulen-5-one]	no significant influence to its activity	
COc1cc2cccc(OC)c(=O)c2c(OC)c1OC [compound 6, 2,3,4,6-tetramethoxy-5H-benzo[7]annulen-5-one]	significant decrease of inhibition	IC50 (TLR1/2 [2]): > 40000 nM
COc1cc2cc(C(=O)O)cc(O)c(=O)c2c(O)c1O [compound 10, 3,4,6-trihydroxy-2-methoxy-5-oxo-5H-benzo[7]annulene-8-carboxylic acid]		decrease of TLR1/2 inhibitory activity versus comparator (TLR1/2 [1]; SAR comparison): six-fold
COC(=O)c1cc(O)c(=O)c2c(O)c(O)c(OC)cc2c1 [compound 11, Methyl 3,4,6-trihydroxy-2-methoxy-5-oxo-5H-benzo[7]annulene-8-carboxylate]	returned the activity to the NCI35676 level	
CCCCCCNC(=O)c1cc(O)c(=O)c2c(O)c(O)c(OC)cc2c1 [compound 22, N-hexyl-3,4,6-trihydroxy-2-methoxy-5-oxo-5H-benzo[7]annulene-8-carboxamide]	activity slightly decreased	
COc1cc2cc(CO)cc(O)c(=O)c2c(O)c1O [compound 23, 3,4,6-trihydroxy-8-(hydroxymethyl)-2-methoxy-5H-benzo[7]annulen-5-one]	no significant change in activity	
COc1cc2cc(C(=O)Nc3ccccc3C)cc(O)c(=O)c2c(O)c1O [compound 24, 3,4,6-trihydroxy-2-methoxy-5-oxo-N-o-tolyl-5H-benzo[7]annulene-8-carboxamide]	no significant change in activity	
Pam3CSK4		Kd (TLR1/2 [3]): 1.2 nM
